Results as given in publication PMC10819888, “Benzimidazole-Based Derivatives as Apoptotic Antiproliferative Agents: Design, Synthesis, Docking, and Mechanistic Studies” (Molecules, 2024).

Tests used:
NCI/ADR-RES = assay: NCI-60 five-dose assay; assay type: cell-based, human; conditions: NCI/ADR-RES (Ovarian Cancer), 48 h; for GI50 / CC50: Homo sapiens; for GI50: read-out: GI50 Conc. per Cell Line; for CC50: read-out: LC50 (the source's name)
A498 = assay: NCI-60 five-dose assay; assay type: cell-based, human; conditions: A498 (Renal Cancer), 48 h; for GI50 / CC50: Homo sapiens; for GI50: read-out: GI50 Conc. per Cell Line; for CC50: read-out: LC50 (the source's name)
Ovarian Cancer subpanel = assay: NCI-60 five-dose assay, subpanel; assay type: cell-based, human; conditions: for GI50: Homo sapiens, Ovarian Cancer, average sensitivity of all subpanel cell lines, read-out: GI50 Subpanel MID b; for GI50 Selectivity Ratio (MID a/MID b): Ovarian Cancer subpanel
Leukemia subpanel = assay: NCI-60 five-dose assay, subpanel; assay type: cell-based, human; conditions: for GI50: Homo sapiens, Leukemia, average sensitivity of all subpanel cell lines, read-out: GI50 Subpanel MID b
UO-31 = assay: NCI-60 five-dose assay; assay type: cell-based, human; conditions: UO-31 (Renal Cancer), 48 h; for GI50 / CC50: Homo sapiens; for GI50: read-out: GI50 Conc. per Cell Line; for CC50: read-out: LC50 (the source's name)
Melanoma subpanel = assay: NCI-60 five-dose assay, subpanel; assay type: cell-based, human; conditions: for GI50: Homo sapiens, Melanoma, average sensitivity of all subpanel cell lines, read-out: GI50 Subpanel MID b; for GI50 Selectivity Ratio (MID a/MID b): Melanoma subpanel
K-562 = assay: NCI-60 five-dose assay; assay type: cell-based, human; conditions: K-562 (Leukemia), 48 h; for GI50 / CC50: Homo sapiens, K562; for GI50: read-out: GI50 Conc. per Cell Line; for CC50: read-out: LC50 (the source's name)
SK-OV-3 = assay: NCI-60 five-dose assay; assay type: cell-based, human; conditions: SK-OV-3 (Ovarian Cancer), 48 h; for GI50 / CC50: Homo sapiens; for GI50: read-out: GI50 Conc. per Cell Line; for CC50: read-out: LC50 (the source's name)
NCI-H460 = assay: NCI-60 five-dose assay; assay type: cell-based, human; conditions: NCI-H460 (Non-Small Cell Lung Cancer), 48 h; for GI50: read-out: GI50 Conc. per Cell Line
KM12 = assay: NCI-60 five-dose assay; assay type: cell-based, human; conditions: KM12 (Colon Cancer), 48 h; for GI50 / CC50: Homo sapiens; for GI50: read-out: GI50 Conc. per Cell Line; for CC50: read-out: LC50 (the source's name)
SR = assay: NCI-60 five-dose assay; assay type: cell-based, human; conditions: SR (Leukemia), 48 h; for GI50 / CC50: Homo sapiens; for GI50: read-out: GI50 Conc. per Cell Line; for CC50: read-out: LC50 (the source's name)
M14 = assay: NCI-60 five-dose assay; assay type: cell-based, human; conditions: M14 (Melanoma), 48 h; for GI50 / CC50: Homo sapiens; for GI50: read-out: GI50 Conc. per Cell Line; for CC50: read-out: LC50 (the source's name)
MOLT-4 = assay: NCI-60 five-dose assay; assay type: cell-based, human; conditions: MOLT-4 (Leukemia), 48 h; for GI50 / CC50: Homo sapiens; for GI50: read-out: GI50 Conc. per Cell Line; for CC50: read-out: LC50 (the source's name)
EGFR = EGFR (Homo sapiens, UniProt P00533); assay: EGFR inhibitory assay
NCI-H226 = assay: NCI-60 five-dose assay; assay type: cell-based, human; conditions: NCI-H226 (Non-Small Cell Lung Cancer), 48 h; for GI50 / CC50: Homo sapiens; for GI50: read-out: GI50 Conc. per Cell Line; for CC50: read-out: LC50 (the source's name)
NCI-H322M = assay: NCI-60 five-dose assay; assay type: cell-based, human; conditions: NCI-H322M (Non-Small Cell Lung Cancer), 48 h; for GI50 / CC50: Homo sapiens; for GI50: read-out: GI50 Conc. per Cell Line; for CC50: read-out: LC50 (the source's name)
COLO 205 = assay: NCI-60 five-dose assay; assay type: cell-based, human; conditions: COLO 205 (Colon Cancer), 48 h; for GI50: read-out: GI50 Conc. per Cell Line
HS 578T = assay: NCI-60 five-dose assay; assay type: cell-based, human; conditions: HS 578T (Breast Cancer), 48 h; for GI50 / CC50: Homo sapiens; for GI50: read-out: GI50 Conc. per Cell Line; for CC50: read-out: LC50 (the source's name)
MDA-MB-435 = assay: NCI-60 five-dose assay; assay type: cell-based, human; conditions: MDA-MB-435 (Melanoma), 48 h; for GI50 / CC50: Homo sapiens; for GI50: read-out: GI50 Conc. per Cell Line; for CC50: read-out: LC50 (the source's name)
HCC-2998 = assay: NCI-60 five-dose assay; assay type: cell-based, human; conditions: HCC-2998 (Colon Cancer), 48 h; for GI50 / CC50: Homo sapiens; for GI50: read-out: GI50 Conc. per Cell Line; for CC50: read-out: LC50 (the source's name)

Chain of EGFR (P00533 669-1210): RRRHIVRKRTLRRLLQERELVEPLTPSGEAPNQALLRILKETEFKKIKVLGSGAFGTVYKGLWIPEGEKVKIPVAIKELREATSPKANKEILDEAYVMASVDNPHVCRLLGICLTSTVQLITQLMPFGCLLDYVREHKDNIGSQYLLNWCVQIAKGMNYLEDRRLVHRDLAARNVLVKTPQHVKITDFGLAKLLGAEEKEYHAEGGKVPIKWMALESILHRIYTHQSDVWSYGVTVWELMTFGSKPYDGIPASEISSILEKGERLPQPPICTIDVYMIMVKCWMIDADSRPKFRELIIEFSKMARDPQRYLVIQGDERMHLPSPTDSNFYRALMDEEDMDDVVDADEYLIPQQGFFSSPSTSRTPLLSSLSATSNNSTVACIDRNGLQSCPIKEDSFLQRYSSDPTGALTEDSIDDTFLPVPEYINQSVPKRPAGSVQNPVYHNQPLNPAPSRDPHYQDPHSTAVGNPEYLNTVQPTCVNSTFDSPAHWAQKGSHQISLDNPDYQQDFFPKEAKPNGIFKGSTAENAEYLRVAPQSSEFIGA

With `CN(C)c1ccc(C=NNC(=O)c2ccc3[nH]c(-c4ccc(Cl)cc4)nc3c2)cc1` [Compound 4b, N′-(4-(Dimethylamino)benzylidene)-2-(4-chlorophenyl)-1H-benzimidazole-5-carbohydrazide] the melting point was 283 to 285 °C.

With `O=C(NN=Cc1ccc([N+](=O)[O-])cc1)c1ccc2[nH]c(-c3ccc(Cl)cc3)nc2c1` [Compound 4c, N′-(4-Nitrobenzylidene)-2-(4-chlorophenyl)-1H-benzimidazole-5-carbohydrazide] the GI50 (NCI/ADR-RES) was 12.6 µM, the CC50 (NCI/ADR-RES) was > 100 µM and the TGI (NCI/ADR-RES) was >100 µM. The TGI (A498) was 7.75 µM, the GI50 (A498) was 2.4 µM and the CC50 (A498) was 36.4 µM. The GI50 (Ovarian Cancer subpanel) was 5.77 µM, the “GI50 Selectivity Ratio (MID a/MID b)” value (Ovarian Cancer subpanel) was 0.57 and the GI50 (Leukemia subpanel) was 0.55 µM. For the same compound, the GI50 (UO-31) was 6.05 µM, the CC50 (UO-31) was > 100 µM and the TGI (UO-31) was 38.30 µM. The GI50 (Melanoma subpanel) was 2.87 µM, the “GI50 Selectivity Ratio (MID a/MID b)” value (Melanoma subpanel) was 1.14 and the GI50 (K-562) was 0.499 µM. The CC50 (K-562) was 54.6 µM, the TGI (K-562) was 8.44 µM and the GI50 (SK-OV-3) was 11.4 µM. The CC50 (SK-OV-3) was > 100 µM, the TGI (SK-OV-3) was 39.60 µM and the GI50 (NCI-H460; Homo sapiens) was 2.1 µM. It also gave a TGI (NCI-H460) of 4.49 µM, a GI50 (KM12) of 3.43 µM and a CC50 (KM12) of 82.6 µM. For the same compound, the TGI (KM12) was 13.00 µM, the GI50 (SR) was 0.566 µM and the CC50 (SR) was > 100 µM. The TGI (SR) was 4.87 µM, the GI50 (M14) was 2.73 µM and the CC50 (M14) was 67.1 µM. For the same compound, the TGI (M14) was 9.13 µM, the GI50 (MOLT-4) was 0.421 µM and the CC50 (MOLT-4) was > 100 µM. The TGI (MOLT-4) was 3.85 µM, the IC50 (EGFR) was 0.11 ± 0.01 µM and the GI50 (NCI-H226) was 5.03 µM. The CC50 (NCI-H226) was > 100 µM, the TGI (NCI-H226) was 31.20 µM and the GI50 (NCI-H322M) was 5.04 µM. For the same compound, the CC50 (NCI-H322M) was > 100 µM, the TGI (NCI-H322M) was 26.40 µM and the TGI (COLO 205) was 3.76 µM. The GI50 (COLO 205; Homo sapiens) was 1.46 µM, the TGI (HS 578T) was 24.40 µM and the GI50 (HS 578T) was 3.58 µM. For the same compound, the CC50 (HS 578T) was > 100 µM, the GI50 (MDA-MB-435) was 3.57 µM and the CC50 (MDA-MB-435) was 47.6 µM. The TGI (MDA-MB-435) was 12.20 µM, the TGI (HCC-2998) was 4.81 µM and the GI50 (HCC-2998) was 1.48 µM. The CC50 (HCC-2998) was 28.1 µM.

Compound `O=C(NN=Cc1ccc(F)cc1)c1ccc2[nH]c(-c3ccc(Cl)cc3)nc2c1` [Compound 4d, N′-(4-Fluorobenzylidene)-2-(4-chlorophenyl)-1H-benzimidazole-5-carbohydrazide] has an IC50 (EGFR) of 0.68 ± 0.05 µM and a melting point of 285 to 287 °C.

With `O=C(NN=Cc1ccc(Cl)cc1)c1ccc2[nH]c(-c3ccc(Cl)cc3)nc2c1` [Compound 4e, N′-(4-Chlorobenzylidene)-2-(4-chlorophenyl)-1H-benzimidazole-5-carbohydrazide] the GI50 (NCI/ADR-RES) was 1.83 µM, the CC50 (NCI/ADR-RES) was 12.7 µM and the TGI (NCI/ADR-RES) was 4.43 µM. The TGI (A498) was 4.94 µM, the GI50 (A498) was 1.74 µM and the CC50 (A498) was 19.6 µM. The GI50 (Ovarian Cancer subpanel) was 1.81 µM, the “GI50 Selectivity Ratio (MID a/MID b)” value (Ovarian Cancer subpanel) was 0.99 and the GI50 (Leukemia subpanel) was 1.33 µM. For the same compound, the “GI50 Selectivity Ratio (MID a/MID b)” value (Leukemia subpanel; Leukemia subpanel) was 1.35, the GI50 (UO-31) was 1.57 µM and the CC50 (UO-31) was 5.67 µM. The TGI (UO-31) was 2.99 µM, the GI50 (Melanoma subpanel) was 1.77 µM and the “GI50 Selectivity Ratio (MID a/MID b)” value (Melanoma subpanel) was 1.01. For the same compound, the GI50 (K-562) was 0.969 µM, the CC50 (K-562) was 12.3 µM and the TGI (K-562) was 3.23 µM. For the same compound, the GI50 (SK-OV-3) was 1.79 µM, the CC50 (SK-OV-3) was 11 µM and the TGI (SK-OV-3) was 4.31 µM. The LC50 (NCI-H460; Homo sapiens) was 6.3 µM, the GI50 (NCI-H460; Homo sapiens) was 1.56 µM and the TGI (NCI-H460) was 3.13 µM. The GI50 (KM12) was 2.03 µM, the CC50 (KM12) was 9.8 µM and the TGI (KM12) was 4.46 µM. It also gave a GI50 (SR) of 1.01 µM, a CC50 (SR) of 37 µM and a TGI (SR) of 3.95 µM. It also gave a GI50 (M14) of 1.65 µM, a CC50 (M14) of 8.96 µM and a TGI (M14) of 3.84 µM. For the same compound, the GI50 (MOLT-4) was 1.55 µM, the CC50 (MOLT-4) was 28.2 µM and the TGI (MOLT-4) was 4.81 µM. For the same compound, the IC50 (EGFR) was 0.09 ± 0.01 µM, the GI50 (NCI-H226) was 1.77 µM and the CC50 (NCI-H226) was 6.86 µM. The TGI (NCI-H226) was 3.48 µM, the GI50 (NCI-H322M) was 2.15 µM and the CC50 (NCI-H322M) was 19.8 µM. For the same compound, the TGI (NCI-H322M) was 5.26 µM, the TGI (COLO 205) was 3.25 µM and the GI50 (COLO 205; Homo sapiens) was 1.55 µM. It also gave a CC50 (COLO 205; Homo sapiens, read-out: LC50 (the source's name)) of 8.82 µM, a TGI (HS 578T) of 5.27 µM and a GI50 (HS 578T) of 2.28 µM. The CC50 (HS 578T) was 63.2 µM, the GI50 (MDA-MB-435) was 1.73 µM and the CC50 (MDA-MB-435) was 6.49 µM. For the same compound, the TGI (MDA-MB-435) was 3.35 µM, the TGI (HCC-2998) was 3.44 µM and the GI50 (HCC-2998) was 1.82 µM. For the same compound, the CC50 (HCC-2998) was 6.5 µM.

With `O=C(NN=Cc1ccc(Cl)cc1Cl)c1ccc2[nH]c(-c3ccc(Cl)cc3)nc2c1` [Compound 4f, N′-(2,4-Dichlorobenzylidene)-2-(4-chlorophenyl)-1H-benzimidazole-5-carbohydrazide] the melting point was 294 to 297 °C.

For `COc1cc(/C=N/NC(=O)c2ccc3[nH]c(-c4ccc(Cl)cc4)nc3c2)cc(OC)c1OC` [Compound 4h, N′-(3,4,5-Trimethoxybenzylidene)-2-(4-chlorophenyl)-1H-benzimidazole-5 carbohydrazide], the IC50 (EGFR) was 0.56 ± 0.05 µM.

`O=C(N/N=C/c1ccc(O)cc1)c1ccc2[nH]c(-c3ccc(Cl)cc3)nc2c1` [Compound 4i, N′-(4-Hydroxybenzylidene)-2-(4-chlorophenyl)-1H-benzimidazole-5-carbohydrazide] gave a melting point of 263 to 265 °C.

Compound `CCn1c(-c2ccc3[nH]c(-c4ccc(Cl)cc4)nc3c2)n[nH]c1=S` [Compound 6, 4-ethyl-5-(2-(4-chlorophenyl)-1H-benzimidazol-5-yl)-2,4-dihydro-3H-1,2,4triazole-3-thione] has a melting point of 292 to 294 °C.
